Reference: US10570121B2, “Substituted dihydroisoquinolinone compounds” (priority 2014, dated 2020)
Read-outs that look alike come from different tables or passages of the source.

Assays:
WT EZH2 = WT EZH2 (Homo sapiens (Human), UniProt Q15910); assay: WT EZH2 nucleosome assay (10X SAM, high SAM conditions); format: biochemical; details: 15 uM SAM, Ki app from competitive inhibition fit
Procedure: (§1) The genes for EZH2, EED, SUZ12, and RBBP4 proteins were cloned into pBacPAK9 vectors (Clontech). RBBP4 was FLAG tagged on the N-terminal end. The baculovirus expressions of these proteins were used to co-infect SF9 insect cells. Insect cell pellets were lysed in a buffer containing 25 mM Tris pH8.0, 300 mM NaCl, 0.5 mM TCEP, complete EDTA-free protease inhibitor (Roche), 0.1% NP-40. The supernatant from the lysate was incubated with FLAG® M2 antibody resin (Sigma). The resin was washed on the chromatography column and eluted with 0.2 mg/ml FLAG peptide. The elute was incubated with omnicleave nucleases (Epicentre Technologies) at 4° C. overnight, then concentrated and loaded onto a Superdex 200 (GE Healthcare) column. The Superdex 200 column was eluted with 25 mM Tris pH8.0, 150 mM NaCl, 0.5 mM TCEP. Fractions containing the PRC2 complex were pooled.
(§2) A. Compound preparation • 1.
(§3) B. Reagent preparation • 1. […] Dilute TCA to 20% in DI water
(§4) C. Enzyme reaction • 1. […] Some compounds were tested under high SAM conditions.
(§5) D. Data analysis • 1. IC50 values were determined by fitting the data to a 4-parameter IC50 equation using proprietary curve fitting software. • 2. For compounds tested under high SAM conditions, Ki^app values were obtained by fitting the dose response curve to a model for competitive inhibition using proprietary curve fitting software. Preparation of HeLa Oligonucleosomes: Reagents • Cell Pellet: 15 L HeLa S3 (Accelgen)+6 L HeLa S3 (in house) • Mnase (Worthington Biochemicals) Equipment • SW-28 Rotor • Dounce Homogenizer/B Pestle Buffers • Lysis: 20 mM Hepes pH 7.5, 0.25M Sucrose, 3 mM MgCl2, 0.5% Nonidet P-40, 0.5 mM TCEP, 1 Roche Protease Tablet • B: 20 mM Hepes pH7.5, 3 mM MgCl2, 0.5 mM EDTA, 0.5 mM TCEP, 1 Roche Protease Tablet • MSB: 20 mM Hepes pH7.5, 0.4 M NaCl, 1 mM EDTA, 5% v/v Glycerol, 0.5 mM TCEP, 0.2 mM PMSF • LSB: 20 mM Hepes pH7.5, 0.1M NaCl, 1 mM EDTA, 0.5 mM TCEP, 0.2 mM PMSF • NG: 20 mM Hepes pH7.5, 1 mM EDTA, 0.4 m NaCl, 0.2 mM PMSF, 0.5 mM TCEP • Storage: 20 mM Hepes pH7.5, 1 mM EDTA, 10% Glycerol, 0.2 mM PMSF, 0.5 mM TCEP Protocol

EZH2 Mutant Y641N = EZH2 Mutant Y641N (Homo sapiens (Human), UniProt Q15910, Y641N); assay: EZH2 Mutant Y641N nucleosome assay; format: biochemical; details: PRC2 4-protein complex 6 nM, 1.5 μM SAM, HeLa oligonucleosomes
Procedure: as §1, §2, §3, §4, §5

[1] = read-out: WT EZH2 Nucleosome assay (10X SAM) Ki
[2] = read-out: EZH2 Mutant Y641N Nucleosome assay IC50
[3] = WT EZH2 Nucleosome assay (10X SAM) Ki (μM)
[4] = EZH2 Mutant Y641N Nucleosome assay IC50 (μM)

Sequence of EZH2 Mutant Y641N (Q15910 whole entry Y641N, looked up): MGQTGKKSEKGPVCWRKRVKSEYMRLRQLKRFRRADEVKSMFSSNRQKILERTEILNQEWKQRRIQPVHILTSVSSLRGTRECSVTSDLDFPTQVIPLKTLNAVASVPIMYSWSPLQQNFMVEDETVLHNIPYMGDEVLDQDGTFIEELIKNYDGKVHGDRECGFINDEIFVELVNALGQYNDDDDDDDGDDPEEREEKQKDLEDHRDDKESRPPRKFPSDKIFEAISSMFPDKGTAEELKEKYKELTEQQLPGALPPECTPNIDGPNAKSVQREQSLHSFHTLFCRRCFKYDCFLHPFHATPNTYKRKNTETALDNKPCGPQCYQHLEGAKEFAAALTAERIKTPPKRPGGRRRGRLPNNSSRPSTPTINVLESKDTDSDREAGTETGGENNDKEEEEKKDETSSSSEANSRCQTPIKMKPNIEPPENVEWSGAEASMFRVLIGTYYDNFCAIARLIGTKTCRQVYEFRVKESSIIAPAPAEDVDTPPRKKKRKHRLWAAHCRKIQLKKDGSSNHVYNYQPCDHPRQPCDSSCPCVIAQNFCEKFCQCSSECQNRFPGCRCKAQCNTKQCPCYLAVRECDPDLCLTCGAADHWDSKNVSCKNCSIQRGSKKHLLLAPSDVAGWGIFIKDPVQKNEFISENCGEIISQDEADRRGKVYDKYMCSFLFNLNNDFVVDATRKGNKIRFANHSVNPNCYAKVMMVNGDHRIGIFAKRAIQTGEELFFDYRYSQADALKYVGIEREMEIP
Sequence of EZH2 Mutant Y641N (O75530 whole entry partner, looked up): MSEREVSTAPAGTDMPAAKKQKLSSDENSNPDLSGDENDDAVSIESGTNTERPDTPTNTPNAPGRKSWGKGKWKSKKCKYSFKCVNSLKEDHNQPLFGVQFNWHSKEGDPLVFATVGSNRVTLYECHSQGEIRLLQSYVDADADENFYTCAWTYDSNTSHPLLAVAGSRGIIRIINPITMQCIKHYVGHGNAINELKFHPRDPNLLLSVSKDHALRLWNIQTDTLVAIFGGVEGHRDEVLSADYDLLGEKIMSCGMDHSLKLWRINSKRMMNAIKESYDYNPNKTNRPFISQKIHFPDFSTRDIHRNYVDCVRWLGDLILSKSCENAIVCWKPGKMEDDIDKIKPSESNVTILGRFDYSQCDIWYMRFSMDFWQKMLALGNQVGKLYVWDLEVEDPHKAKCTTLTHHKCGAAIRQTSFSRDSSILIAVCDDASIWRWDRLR
Sequence of EZH2 Mutant Y641N (Q15022 whole entry partner, looked up): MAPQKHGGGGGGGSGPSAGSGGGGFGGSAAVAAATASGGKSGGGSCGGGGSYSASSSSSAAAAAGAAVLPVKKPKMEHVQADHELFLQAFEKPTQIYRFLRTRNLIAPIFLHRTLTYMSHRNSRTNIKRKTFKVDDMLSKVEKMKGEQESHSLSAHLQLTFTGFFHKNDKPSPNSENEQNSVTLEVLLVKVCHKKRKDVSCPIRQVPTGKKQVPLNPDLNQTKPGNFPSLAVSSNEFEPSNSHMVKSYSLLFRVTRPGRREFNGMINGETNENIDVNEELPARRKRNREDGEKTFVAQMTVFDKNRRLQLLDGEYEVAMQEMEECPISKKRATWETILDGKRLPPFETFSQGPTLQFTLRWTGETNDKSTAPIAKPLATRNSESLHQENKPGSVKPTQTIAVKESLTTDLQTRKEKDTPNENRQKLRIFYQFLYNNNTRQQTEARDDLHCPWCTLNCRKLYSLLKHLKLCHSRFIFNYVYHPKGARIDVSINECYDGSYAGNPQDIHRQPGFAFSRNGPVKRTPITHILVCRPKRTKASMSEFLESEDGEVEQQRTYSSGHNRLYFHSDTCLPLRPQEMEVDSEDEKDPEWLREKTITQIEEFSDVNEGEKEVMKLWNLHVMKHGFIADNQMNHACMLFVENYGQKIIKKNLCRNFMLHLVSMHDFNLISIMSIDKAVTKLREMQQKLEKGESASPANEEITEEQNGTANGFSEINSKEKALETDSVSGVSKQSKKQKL
Sequence of EZH2 Mutant Y641N (Q09028 whole entry partner, looked up): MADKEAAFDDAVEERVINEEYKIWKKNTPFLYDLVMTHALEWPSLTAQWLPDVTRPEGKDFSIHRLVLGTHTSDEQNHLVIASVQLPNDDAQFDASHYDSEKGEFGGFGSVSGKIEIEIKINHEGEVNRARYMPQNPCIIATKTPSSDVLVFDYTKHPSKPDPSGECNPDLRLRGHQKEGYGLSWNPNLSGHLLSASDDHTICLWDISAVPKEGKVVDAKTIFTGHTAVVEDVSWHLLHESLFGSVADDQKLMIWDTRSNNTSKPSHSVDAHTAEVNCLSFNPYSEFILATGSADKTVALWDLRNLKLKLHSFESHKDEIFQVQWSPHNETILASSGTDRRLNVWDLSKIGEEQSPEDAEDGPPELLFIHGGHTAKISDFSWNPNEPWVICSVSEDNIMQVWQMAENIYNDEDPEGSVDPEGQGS
Sequence of WT EZH2 (Q15910 whole entry, looked up): as the sequence (Q15910 whole entry Y641N, looked up) above, with N641Y counted along it
Sequence of WT EZH2 (O75530 whole entry partner, looked up): as the sequence (O75530 whole entry partner, looked up) above
Sequence of WT EZH2 (Q15022 whole entry partner, looked up): as the sequence (Q15022 whole entry partner, looked up) above
Sequence of WT EZH2 (Q09028 whole entry partner, looked up): as the sequence (Q09028 whole entry partner, looked up) above

SMILES	Ki (WT EZH2; [1]) [µM]	IC50 (EZH2 Mutant Y641N; [2]) [µM]	Ki (WT EZH2; [3]) [µM]	IC50 (EZH2 Mutant Y641N; [4]) [µM]
COc1cc(C)[nH]c(=O)c1CN1CCc2c(Cl)cc(C(OC)C3CCN(C=O)CC3)c(Cl)c2C1=O (single isomer, unassigned) [Example 118]	0.0001	0.003	–	–
COc1cc(C)[nH]c(=O)c1CN1CCc2c(Cl)cc(C(OC)C3CCN(C=O)CC3)c(Cl)c2C1=O (single isomer, unassigned) [Example 119]	0.015	0.1	–	–
COC(c1cc(Cl)c2c(c1Cl)C(=O)N(Cc1c(C)cc(C)[nH]c1=O)CC2)C1(F)CCN(C)CC1 (single isomer, unassigned) [Example 120]	0.002	0.014	–	–
COC(c1cc(Cl)c2c(c1Cl)C(=O)N(Cc1c(C)cc(C)[nH]c1=O)CC2)C1(F)CCN(C)CC1 (single isomer, unassigned) [Example 121]	0.029	0.255	–	–
COc1cc(C)[nH]c(=O)c1CN1CCc2c(Cl)cc(C(OC)C3CCN(C(C)=O)CC3)c(Cl)c2C1=O (single isomer, unassigned) [Example 122]	0.073	0.236	–	–
COc1cc(C)[nH]c(=O)c1CN1CCc2c(Cl)cc(C(OC)C3CCN(C(C)=O)CC3)c(Cl)c2C1=O (single isomer, unassigned) [Example 123]	0.0002	0.005	–	–
COc1cc(C)[nH]c(=O)c1CN1CCc2c(Cl)cc(C(OC)C3CCOC3)c(Cl)c2C1=O (single isomer, unassigned) [Example 124]	–	–	0.058	0.892
COc1cc(C)[nH]c(=O)c1CN1CCc2c(Cl)cc(C(OC)C3CCOC3)c(Cl)c2C1=O (single isomer, unassigned) [Example 125]	–	–	0.0009	0.008
COc1cc(C)[nH]c(=O)c1CN1CCc2c(Cl)cc(C(OC)C3CCOC3)c(Cl)c2C1=O (single isomer, unassigned) [Example 126]	–	–	0.056	0.165
COc1cc(C)[nH]c(=O)c1CN1CCc2c(Cl)cc(C(OC)C3CCOC3)c(Cl)c2C1=O (single isomer, unassigned) [Example 127]	–	–	0.0002	0.0022
COC(c1cc(Cl)c2c(c1Cl)C(=O)N(Cc1c(C)cc(C)[nH]c1=O)CC2)C1CN(C(=O)CO)C1 (single isomer, unassigned) [Example 128]	0.184	1.17	–	–
COC(c1cc(Cl)c2c(c1Cl)C(=O)N(Cc1c(C)cc(C)[nH]c1=O)CC2)C1CN(C(=O)CO)C1 (single isomer, unassigned) [Example 129]	0.0008	0.008	–	–
COc1cc(C)[nH]c(=O)c1CN1CCc2c(C)cc(C(OC)C3CCS(=O)(=O)CC3)c(Cl)c2C1=O (single isomer, unassigned) [Example 130]	0.22	1.99	–	–
COC(c1cc(C)c2c(c1Cl)C(=O)N(Cc1c(C)cc(C)[nH]c1=O)CC2)C1CCS(=O)(=O)CC1 (single isomer, unassigned) [Example 131]	0.0007	0.005	–	–
COC(c1ccc2c(c1Cl)C(=O)N(Cc1c(C)cc(C)[nH]c1=O)CC2)C1CCOC1 (single isomer, unassigned) [Example 132]	0.001	0.013	–	–
COC(c1ccc2c(c1Cl)C(=O)N(Cc1c(C)cc(C)[nH]c1=O)CC2)C1CCOC1 (single isomer, unassigned) [Example 133]	0.837	8.64	–	–
COC(c1ccc2c(c1Cl)C(=O)N(Cc1c(C)cc(C)[nH]c1=O)CC2)C1CCOC1 (single isomer, unassigned) [Example 134]	0.131	1.93	–	–
COC(c1ccc2c(c1Cl)C(=O)N(Cc1c(C)cc(C)[nH]c1=O)CC2)C1CCOC1 (single isomer, unassigned) [Example 135]	0.002	0.014	–	–
COC(c1cc(Cl)c2c(c1Cl)C(=O)N(Cc1c(C)cc(C)[nH]c1=O)CC2)C1CCN(C)CC1 (single isomer, unassigned) [Example 136]	–	–	0.0001	0.003
COC(c1cc(Cl)c2c(c1Cl)C(=O)N(Cc1c(C)cc(C)[nH]c1=O)CC2)C1CCN(C)CC1 (single isomer, unassigned) [Example 137]	–	–	0.133	1.17
